In one experiment the target is SF1-LBD (Homo sapiens, UniProt Q13285). The experiment is described as follows: Inhibitory activity against binding of DAX1 to SF1-LBD (AlphaLISA). The note with it: inhibition of binding of DAX1 peptide to His-SF1-LBD, read-out: cell-free SF1 IC50. The protocol:
The binding activity of each compound to the SF-1 ligand binding domain (LBD) was evaluated using the binding inhibitory activity of each compound against binding of DAX1 to SF1-LBD as an index. 100 nM His-SF1-LBD, 2 nM Biotin-DAX1 peptide (Biotin-[…]-NH2) and each compound (8-point i1 dilution series with common ratio 2 from final concentration 2 μM) were mixed in assay buffer [25 mM HEPES (pH 7.5), 100 mM NaCl, 0.1% BSA, 0.01% CHAPS, 1 mM DTT] and reacted at room temperature for 30 min. Anti-6×His AlphaLISA Acceptor beads and Streptavidin-coated AlphaScreen Donor beads were mixed to a final concentrations of 5 μg/ml and 10 μg/ml, respectively, and reacted in the dark at room temperature for 60 min. AlphaLISA signals were detected using a multimode plate reader (EnVision Xcite, PerkinElmer). The binding rate of DAX1 peptide to SF1 was calculated from the luminescence amount (C) of the compound-free group and the luminescence amount (T) of the compound-added group, based on the following formula.
The DAX1 peptide binding rate at each concentration was analyzed using GraphPad Prism6 (GraphPad Software Inc.) to calculate the concentration (IC50 value) of each compound that inhibits 50% of the binding of DAX1 to SF1-LBD.

The next experiment relates to CYP21A2. The experiment is described as follows: Changes in SF1 target gene expression for NCI-H295R: CYP21A2 mRNA (qPCR). The format is cell-based. The note with it: Homo sapiens, NCI-H295R cells, 24 hr. How it is done:
(§1) NCI-H295R cells were cultured in a 5% CO2 incubator at 37° C. using DMEM/F12 medium (Thermo Fisher Scientific Inc.) containing 2.5% Nu-Serum (registered trademark) Growth Medium Supplement (Corning) and 1% Corning ITS+ Premix Universal Culture Supplement (Corning). The DMSO solution of each compound was serially diluted with DMSO using a D300e Digital Dispenser (TECAN), and the compounds were added to a 96-well plate (FALCON). NCI-H295R cells were seeded at 1×10^4 cells/50 μL/well on the 96-well plate containing the compounds added thereto, and cultured for 24 hr in a 5% CO2 incubator at 37° C. The final DMSO concentration in the medium was adjusted to 0.1% (v/v) in all cases, and the concentration range of the compounds was set to 1000 nM to 0.32 nM with a common ratio […]. After the completion of culture, the medium was discarded, 50 μL/well of chilled D-PBS (Sigma Aldrich) was added to wash the cells, and D-PBS was discarded. After washing, 25 μL/well of Cells-to-CT (registered trademark) Bulk Lysis Reagents (Thermo Fisher Scientific, Inc.) was added to the wells, the mixture was stirred for 5 min with a plate mixer, and 2.5 μL/well of the reaction quenching liquid was added to prepare cell lysate. The cell lysate was dispensed into a 96-well plate (Corning) at 10 μL/well, and 40 μL/well of Cells-to-CT Bulk RT Reagents (Thermo Fisher Scientific, Inc.) was added. A reverse transcription reaction was performed at 37° C. for 50 min using a thermal cycler, and the reverse transcriptase was inactivated by heating at 95° C. for 5 min, and then stored at 10° C. PrimeTime (registered trademark) Gene Expression Master Mix (Integrated DNA Technologies), the target genes CYP11A1, CYP17A1, CYP21A2, or STAR, and the control gene ACTB PrimeTime (registered trademark) qPCR Probe Assays (Integrated DNA Technologies), and Nuclease free water were mixed at a ratio of 20:1:1:10 to prepare a PrimerProbe mix. The prepared PrimerProbe mix was added to a 384-well plate at 8 μL/well, and the cDNA obtained by reverse transcription was added at 2 μL/well. Real-Time PCR was performed under fast cycling conditions (95° C. for 3 min, followed by 40 cycles of 95° C. for 5 seconds and 62° C. for 30 seconds) to measure the fluorescent signal. The obtained data was analyzed using GraphPad Prism9 (GraphPad Software Inc.) to calculate the concentration (IC50 value) that reduces the mRNA expression level by 50%. The IC50 values (unit: nM) for CYP11A1, CYP17A1, CYP21A2, and STAR, of the compounds corresponding to each Example number are shown in Table 94.
A general note: Real-time PCR tracks product formation cycle by cycle.

In a further experiment the test system is CYP11A1. The experiment is described as follows: Changes in SF1 target gene expression for NCI-H295R: CYP11A1 mRNA (qPCR). Particulars: Homo sapiens, NCI-H295R cells, 24 hr. The format is cell-based. The protocol:
as §1

The test system of the next experiment is STAR. The experiment is described as follows: Changes in SF1 target gene expression for NCI-H295R: STAR mRNA (qPCR). The format is cell-based. Particulars: Homo sapiens, NCI-H295R cells, 24 hr. How it is done: as §1
The next experiment deals with CYP17A1. The experiment is described as follows: Changes in SF1 target gene expression for NCI-H295R: CYP17A1 mRNA (qPCR). The format is cell-based. The note with it: Homo sapiens, NCI-H295R cells, 24 hr. How it is done:
as §1

The values below come from patent US12606533B2, “3-phenylpropylamine derivative” (DAIICHI SANKYO COMPANY, LIMITED, priority 2023, dated 2026).

Sequence of SF1-LBD (Q13285 222-459 limits assumed): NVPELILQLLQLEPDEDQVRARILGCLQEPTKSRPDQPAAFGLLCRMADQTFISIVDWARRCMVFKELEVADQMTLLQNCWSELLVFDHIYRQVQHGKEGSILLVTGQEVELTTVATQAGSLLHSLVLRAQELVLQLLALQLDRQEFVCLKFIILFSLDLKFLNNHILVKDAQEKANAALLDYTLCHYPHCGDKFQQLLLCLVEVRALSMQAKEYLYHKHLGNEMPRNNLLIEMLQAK

By IC50 is commonly meant the concentration that inhibits the measured activity by half. `COc1ccc([C@]2(CCN(Cc3ccc(O[C@H]4CC[C@H](CS(C)(=N)=O)CC4)cc3)C(=O)C(C)(C)C(F)F)CCOC(C)(C)C2)cc1` (single isomer, unassigned) [Example U11, 3,3-Difluoro-N-{2-[(4R)-4-(4-methoxyphenyl)-2,2-dimethyltetrahydro-2H-pyran-4-yl]ethyl}-2,2-dimethyl-N-{4-[(trans-4-{[(R) or (S)—S-methylsulfonimidoyl]methyl}cyclohexyl)oxy]benzyl}propanamide]: the IC50 worked out at 21 nM on SF1-LBD; 24 nM with CYP21A2; 10 nM with CYP11A1; 54 nM with STAR; 140 nM in the experiment with CYP17A1.

Consider `COc1ccc(C2(CCN(Cc3ccc(O[C@H]4CC[C@H](C(=O)O)CC4)cc3)c3ncc(F)cn3)CCOC(C)(C)C2)cc1` (stereo partly drawn) [Example O2, Trans-4-(4-{[(5-fluoropyrimidin-2-yl) {2-[4-(4-methoxyphenyl)-2,2-dimethyltetrahydro-2H-pyran-4-yl]ethyl}amino]methyl}phenoxy)cyclohexanecarboxylic acid], for which the IC50 on SF1-LBD is 36 nM; in the experiment on CYP21A2, 82 nM; with CYP11A1 it was 35 nM; in the experiment with STAR, 75 nM; in the experiment with CYP17A1 it was 211 nM.

Regarding `COc1ccc(C2(CCN(Cc3ccc(C(=O)c4ccc(CCC(=O)O)cc4)c(C)c3)C(=O)C(C)(C)C(F)(F)F)CCOC(C)(C)C2)cc1` (stereo not drawn) [Example Q4, 3-[4-(4-{[{2-[4-(4-Methoxyphenyl)-2,2-dimethyltetrahydro-2H-pyran-4-yl]ethyl}(3,3,3-trifluoro-2,2-dimethylpropanoyl)amino]methyl}-2-methylbenzoyl)phenyl]propanoic acid], the IC50 worked out at 35 nM at SF1-LBD; 19 nM with CYP21A2; 8.5 nM in the experiment with CYP11A1; 44 nM in the experiment on STAR; 189 nM with CYP17A1.

For the molecule `COc1ccc([C@]2(CCN(Cc3ccc(O[C@H]4CC[C@H](CC(=O)O)CC4)cc3)CC(C)(C)C(F)(F)F)CCOC(C)(C)C2)cc1` [Example T2, [Trans-4-(4-{[{2-[(4R)-4-(4-methoxyphenyl)-2,2-dimethyltetrahydro-2H-pyran-4-yl]ethyl}(3,3,3-trifluoro-2,2-dimethylpropyl)amino]methyl}phenoxy)cyclohexyl]acetic acid], the IC50 on SF1-LBD worked out at 26 nM; with CYP21A2, 2.4 nM; in the experiment with CYP11A1, 1.2 nM; with STAR, 4.1 nM; in the experiment on CYP17A1, 24 nM.

Consider `COc1ccc(C2(CCN(Cc3ccc(O[C@H]4CC[C@H](C(=O)O)CC4)cc3)C(=O)C(C)(C)C)CCOC(C)(C)C2)cc1` (stereo partly drawn) [Example D3, Trans-4-(4-{[(2,2-dimethylpropanoyl){2-[4-(4-methoxyphenyl)-2,2-dimethyltetrahydro-2H-pyran-4-yl]ethyl}amino]methyl}phenoxy)cyclohexanecarboxylic acid], for which the IC50 at SF1-LBD was 29 nM; with CYP21A2, 78 nM; in the experiment on CYP11A1 it was 53 nM; in the experiment with STAR, 76 nM; in the experiment on CYP17A1 it was 144 nM.

Regarding `COc1ccc(C2(CCN(Cc3ccc(Oc4ccc(CC(C)(C)C(=O)O)cc4)cc3)C(=O)C(C)(C)C)CCOC(C)(C)C2)cc1` (stereo not drawn) [Example J4, 3-[4-(4-{[(2,2-Dimethylpropanoyl){2-[4-(4-methoxyphenyl)-2,2-dimethyltetrahydro-2H-pyran-4-yl]ethyl}amino]methyl}phenoxy)phenyl]-2,2-dimethylpropanoic acid], the IC50 stood at 39 nM at SF1-LBD; 8.1 nM in the experiment with CYP21A2; 4.1 nM in the experiment with CYP11A1; 14 nM in the experiment with STAR; 70 nM with CYP17A1.

Regarding `COc1ccc([C@]2(CCN(Cc3ccc(O[C@H]4CC[C@H](C(=O)O)CC4)cc3)C(=O)C(C)(C)C)CCOC(C)(C)C2)cc1` [Example E2, Trans-4-(4-{[(2,2-dimethylpropanoyl) {2-[(4R)-4-(4-methoxyphenyl)-2,2-dimethyltetrahydro-2H-pyran-4-yl]ethyl)amino]methyl}phenoxy)cyclohexanecarboxylic acid], the IC50 came to 19 nM at SF1-LBD; 33 nM in the experiment on CYP21A2; 17 nM in the experiment on CYP11A1; 65 nM with STAR; 189 nM in the experiment on CYP17A1.

For the molecule `COc1ccc([C@]2(CCN(Cc3ccc(Oc4ccc(C(C)C(=O)O)cc4)cc3)CC(C)(C)C(F)(F)F)CCOC(C)(C)C2)cc1` (stereo partly drawn) [Example P3, 2-[4-(4-{[{2-[(4R)-4-(4-Methoxyphenyl)-2,2-dimethyltetrahydro-2H-pyran-4-yl]ethyl}(3,3,3-trifluoro-2,2-dimethylpropyl)amino]methyl}phenoxy)phenyl]propanoic acid], the IC50 at SF1-LBD was determined as 30 nM; in the experiment on CYP21A2, 9.8 nM; in the experiment with CYP11A1, 4.4 nM; in the experiment with STAR it was 19 nM; with CYP17A1, 137 nM.

On to `COc1ccc(C2(CCN(Cc3ccc(O[C@H]4CC[C@H](CC(=O)O)CC4)c(Cl)c3)C(=O)C(C)(C)C)CCOC(C)(C)C2)cc1` (stereo partly drawn) [Example C8, [Trans-4-(2-chloro-4-{[(2,2-dimethylpropanoyl) {2-[4-(4-methoxyphenyl)-2,2-dimethyltetrahydro-2H-pyran-4-yl]ethyl}amino]methyl}phenoxy)cyclohexyl]acetic acid], for which the IC50 at SF1-LBD is < 16 nM; with CYP21A2, 13 nM; in the experiment on CYP11A1, 7.8 nM; in the experiment on STAR, 26 nM; in the experiment with CYP17A1, 70 nM.

On to `CC1(C)CC(CCN(Cc2ccc(O[C@H]3CC[C@H](C(=O)O)CC3)cc2)C(=O)C(C)(C)C)(c2ccc(N3CCCC3)cc2)CCO1` (stereo partly drawn) [Example G3, Trans-4-(4-{[(2,2-dimethylpropanoyl) (2-{2,2-dimethyl-4-[4-(pyrrolidin-1-yl)phenyl]tetrahydro-2H-pyran-4-yl}ethyl)amino]methyl}phenoxy)cyclohexanecarboxylic acid], for which the half-maximal inhibitory concentration (IC50) on SF1-LBD turned out to be 54 nM; in the experiment with CYP21A2 it was 42 nM; with CYP11A1 it was 32 nM; in the experiment with STAR it was 35 nM; with CYP17A1 it was 73 nM.

Regarding `COc1ccc(C2(CCN(CCC(F)(F)F)Cc3ccc(O[C@H]4CC[C@H](CC(=O)O)CC4)cc3)CCOC(C)(C)C2)cc1` (stereo partly drawn) [Example K5, [Trans-4-(4-{[{2-[4-(4-methoxyphenyl)-2,2-dimethyltetrahydro-2H-pyran-4-yl]ethyl}(3,3,3-trifluoropropyl)amino]methyl}phenoxy)cyclohexyl]acetic acid], the IC50 came to 29 nM at SF1-LBD; 28 nM with CYP21A2; 12 nM with CYP11A1; 47 nM in the experiment on STAR; 141 nM in the experiment on CYP17A1.

Take `CCO[C@@H](Cc1ccc(Oc2ccc(CN(CC[C@@]3(c4ccc(OC)cc4)CCOC(C)(C)C3)CC(C)(C)C(F)(F)F)cc2)cc1)C(=O)O` [Example R3, (2S)-2-Ethoxy-3-[4-(4-{[{2-[(4R)-4-(4-methoxyphenyl)-2,2-dimethyltetrahydro-2H-pyran-4-yl]ethyl}(3,3,3-trifluoro-2,2-dimethylpropyl)amino]methyl}phenoxy)phenyl]propanoic acid]: the IC50 at SF1-LBD was 27 nM; in the experiment with CYP21A2 it was 4.3 nM; in the experiment with CYP11A1, 3.3 nM; in the experiment with STAR, 6.2 nM; with CYP17A1 it was 28 nM.
